Read-outs that look alike come from different tables or passages of the source.
Assays:
[1] = tested on: rat spontanément hypertendu (S.H.R.); experiment: Antihypertensive activity in the spontaneously hypertensive rat (SHR); format: in vivo; conditions: for minimal effective dose: Rattus norvegicus, read-out: Activité anti-hypertensive SHR Dose minimale active
[2] = Acute toxicity (DL 50); conditions: in vivo
[3] = tested on: rat normotendu; experiment: Cardiovascular effects in the normotensive rat; format: in vivo; conditions: 50 mg.kg^-1 I.P.
[4] = tested on: souris; experiment: Exploratory activity; format: in vivo; conditions: Mus musculus, ip; I.P.; read-out: diminue l'activité d'exploration D.E.50
[5] = tested on: souris; experiment: Analgesic activity, hot plate; format: in vivo; conditions: I.P.
[6] = tested on: souris; experiment: Yohimbine test; conditions: in vivo
[7] = tested on: souris; experiment: Oxotremorine test; format: in vivo; conditions: à forte dose
[8] = tested on: souris; experiment: Motor incoordination; format: in vivo; conditions: I.P.
[9] = tested on: souris; experiment: Apomorphine test; conditions: in vivo
[10] = tested on: souris; experiment: Potentiation of barbiturate sleep; format: in vivo; conditions: I.P.
[11] = tested on: souris; experiment: Hypothermia; format: in vivo; conditions: I.P.
[12] = tested on: souris; experiment: Spontaneous motility; format: in vivo; conditions: I.P.
[13] = tested on: souris; experiment: Analgesic activity, P.B.Q. test; conditions: in vivo
[14] = tested on: rat; experiment: Anti-inflammatory activity, carrageenan test; format: in vivo; conditions: I.P.
[15] = tested on: souris; experiment: Antagonism of amphetamine hypermotility; format: in vivo; conditions: I.P.

SMILES	LD50 ([2]; ip, I.P.) [mg/kg]	Activité anti-hypertensive SHR Dose minimale active ([1]; route not given)	minimal effective dose ([1]; ip, I.P.) [mg/kg]	other results
CC(=NNC(=O)CO)c1ccccc1Cl [Exemple 4, (hydroxy-2 acétyl)-1 (orthochlorophényl-1 éthylidène-1)-2 hydrazine]	583	–	–	minimal effective dose ([1]; route not given): 3.13 mg/kg
CC(O)C(=O)NN=Cc1ccccc1Cl (stereo not shown) [3a, reference compound]	–	inactif	–	LD50 ([2]; route not given): 300 mg/kg
CC(=NNC(=O)CC(C)(C)O)c1ccccc1Cl [1e, reference compound]	227	inactif	–	–
NCC(=O)NN=Cc1ccccc1Cl [7a, reference compound]	360	inactif	–	–
COCC(=O)NN=C(C)c1ccccc1Cl [Exemple 6, (méthoxy-2 acétyl)-1 (orthochlorophényl-1 éthylidène-1)-2 hydrazine]	200	–	6.25	–
CC(C)(O)C(=O)NN=Cc1ccccc1Cl [1a, reference compound]	490	inactif	–	–
CC(=NNC(=O)C(N)=O)c1ccccc1Cl [Exemple 9, oxamoyl-1 (orthochlorophényl-1 éthylidène-1)-2 hydrazine]	> 400	–	12.5	–
NC(=O)C(=O)NN=Cc1ccccc1Cl [9a, reference compound]	> 400	inactif	–	–
CC(=NNC(=O)C(C)(C)O)c1ccc(Cl)cc1 [1b, reference compound]	150	inactif	–	–
CC(=NNC(=O)CN)c1ccccc1Cl [Exemple 7, (amino-2 acétyl)-1 (orthochlorophényl-1 éthylidène-1)-2 hydrazine]	143	–	–	minimal effective dose ([1]; po, P.O.): 2 mg/kg
CC(C)(O)C(=O)NN=Cc1ccc(Cl)cc1 [1c, reference compound]	660	inactif	–	–
CC(=NNC(=O)C(C)(C)O)c1ccccc1Cl [Exemple 1, (hydroxy-2 isobutyroyl)-1 (orthochlorophényl-1 éthylidène-1)-2 hydrazine]	482	–	–	pression artérielle du rat normotendu [3]: sans modifier; rythme cardiaque du rat normotendu [3]: augmente significativement; ED50 [4]: 27 mg/kg; activité analgésique "plaque chauffante" D.E.50 [5]: 6 mg/kg; test de la yohimbine [6]: inactif; minimal effective dose ([1]; po, P.O.): 2 mg/kg; fréquence cardiaque ([1]; administration P.O.): n'est pas modifiée de manière significative; action antihypertensive ([1]; administration répétée sur 5 jours, 1,5 mg.kg^-1 P.O.): confirment l'action antihypertensive; diminue la pression artérielle du rat spontanément hypertendu (S.H.R.) D.E.so ([1]; administration unique, I.P.): 1,9 mg.kg^-1; action antihypertensive D.E.50 ([1]; administration unique, P.O.): 2 mg/kg; activité antihypertensive (dose) ([1]; per os, rat SHR printed for MP 440 only): 2 mg/kg; test à l'oxotrémorine [7]: modifie de façon peu nette; incoordination motrice uniquement à forte dose [8]: 50 mg/kg; test à l'apomorphine [9]: inactif; potentialise le sommeil barbiturique dès la dose de [10]: ≥ 12,5 mg.kg^-1; hypothermie uniquement à forte dose [11]: 50 mg/kg; diminue la motilité spontanée D.E.50 [12]: 10 mg/kg; activité analgésique au test à la P.B.Q. [13]: faible; anti-inflammatoire sur le test à la carraghénine D.E.so [14]: 38 mg/kg; antagonise l'hypermotilité amphétaminique à partir de (dose) [15]: ≥ 12,5 mg.kg^-1
COCC(=O)NN=Cc1ccccc1Cl [6a, reference compound]	477	inactif	–	–
CCC(=NNC(=O)C(C)(C)O)c1ccccc1Cl [Exemple 16, (hydroxy-2 isobutyroyl)-1 (orthochlorophényl-1 propylidène-1)-2 hydrazine]	179	–	6.25	–
CC(C)(O)CC(=O)NN=Cc1ccccc1Cl [1d, reference compound]	433	inactif	–	–
CCCCC(=NNC(=O)C(C)(C)O)c1ccccc1Cl [Exemple 26, (hydroxy-2 isobutyroyl)-1 (chloro-2 phényl-1 pentylidène-1)-2 hydrazine]	> 400	–	6.25	–
CC(=NNC(=O)C(C)O)c1ccccc1Cl (stereo not shown) [Exemple 3, (hydroxy-2 propanoyl)-1 (orthochlorophényl-1 éthylidène-1)-2 hydrazine]	240	–	12.5	–
CSCC(=O)NN=C(C)c1ccccc1Cl [Exemple 8, (méthylthio-2 acétyl)-1 (orthochlorophényl-1 éthylidène-1)-2 hydrazine]	> 400	–	12.5	–
